Reference: patent US20210087565A1, “ANTISENSE ANTIBIOTICS AND BACTERIAL SECRETION BASED DELIVERY SYSTEM TO ELIMINATE DRUG-RESISTANT BACTERIA” (priority 2018, published 2021)
“Also recorded” adds a separate entry of the source. Like-named read-outs stand apart in the source and are kept apart here.

Columns and labels:
[1] = tested on: clinical isolates of Enterobacteriaceae; experiment: Antibiotic resistance screening (MIC against CLSI breakpoints), all strains; assay type: cell-based; details: CLSI 2016-2017 breakpoints
Experimental: (§1) Phenotypic antibiotic resistance characterization of the clinical isolates was performed to determine “sensitive” (S), “intermediate” (I), and “resistant” (R) phenotypes using the 2016-2017 Clinical & Laboratory Standards Institute (CLSI) sensitive/resistant breakpoint values (Table 4).
(§2) Antibiotic resistance screening: Sensitive/resistant breakpoints were taken from the 2016-2017 Clinical & Laboratory Standards Institute report (Table 4). Liquid cultures of the clinical strains were diluted to a 0.5 McFarland standard and added to the respective antibiotic test condition. The antibiotic minimum inhibitory concentration (MIC) for each clinical isolate was determined as the lowest antibiotic concentration which prevented visible cell growth for 24 h. Strains were: “sensitive” if the MIC was equal to or below the sensitive-breakpoint concentration, “resistant” if the MIC was greater than or equal to the resistant-breakpoint concentration, and “intermediate” if the MIC was in-between.

NDM-1 KPN = experiment: Antibiotic resistance screening (MIC against CLSI breakpoints); assay type: cell-based, Klebsiella pneumoniae; details: meropenem, CLSI 2016-2017 breakpoints
Experimental: as §1, §2

SL1344 = experiment: Growth inhibition of SL1344 in broth culture; assay type: cell-based, Salmonella enterica serovar typhimurium; details: 10 μM, 24 hours
Experimental: FIG. 25. α-recA growth inhibition of SL1344. Optical density was measured at 600 nm in 50 μL cultures and normalized optical density is reported at 24 hours as absorbance at 600 nm minus media blank and each biological replicate normalized to the optical density reading at time zero. Overnight cultures of SL1344 were diluted 1:10,000 and treated with 10 μM addition of α-recA for 24 hours. Error bars indicate standard deviation of n=3 biological replicates.

[2] = tested on: SL1344-mCherry in HeLa cells; experiment: Double infection of HeLa cells, PNA delivery and release by SL1344-Holin; assay type: cell-based, Salmonella enterica serovar typhimurium
Experimental: FIG. 14. Combining the bacterial Type III secretion system (T3SS) and the holing/endolysin kill switch for PNA delivery and release. (A) Schematic showing the PNA deliver and release approach using the T3SS and Holin systems respectively to treat an intracellular infection of HeLa cells. HeLa cells were seeded 24 hours prior to infection. A 4:1 mixture of SL1344-Holin to SL1344-mCherry cells with (Bottom) and without (Top) 45 minute PNA pretreatment used to infect HeLa cells for 45 minutes. (Bottom) The PNA enters SL1344-Holin during the 45 minute pretreatment and is carried into the HeLa cell during infection. Following infection and gentamicin protection, the PNA is released from the SL1344-Holin during the 18-hours of treatment to target the SL1344-mCherry population. After 18-hours of incubation the HeLa cells are lysed to determine the number of intracellular colony forming units. (B) Normalized intracellular bacterial load represented as the ratio of normalized SL1344-mCherry:
To that end, the present inventors built a “delivery strain” of Salmonella by expressing the holin lysis cassette, encoding a holin-antiholin according to SEQ ID NO. 34, under control of an inducible laciQ promoter (referred to as SL1344-Holin, FIG. 24), and a therapeutic “target strain” of Salmonella by expressing mCherry from a plasmid in SL1344 (referred to as SL1344-mCherry). The present inventors followed the same infection protocol as described above with few modifications and treated cells with a different PNA, α-recA (N′-[…]-AEEA-[…]-C′), to show the generalizability of the assay. […] As with the previous experiment, the present inventors allowed the Salmonella to uptake the PNA during a 45 minute incubation where the treatment condition (referred to as T3SS-PNA) consisted of SL1344-Holin incubated with 10 μM of α-recA in phosphate buffer saline (PBS) and the no treatment was incubated in only PBS. In parallel, equal cell densities of the target strain SL1344-mCherry was incubated with PBS for 45-minutes. SL1344-Holin (with or without PNA) and SL1344-mCherry cells were washed and mixed in a ratio of 4:1 respectively to achieve a final total MOI of approximately 10:1 for infection of HeLa cells. The infection was carried out for 45 minutes followed by the removal of extracellular bacteria using a gentamicin wash (FIG. 5A), and 18 hours of incubation in fresh growth medium containing gentamicin. […] To account for this variation, the present inventors measured the extracellular and intracellular bacterial load before and after infection respectively and reported the normalized ratio of the latter to the former (FIG. 5B-C, FIG. 26). […]

MDR E. coli = experiment: PNA growth assay (optical density) on clinical isolate; assay type: cell-based, Escherichia coli; details: for growth inhibition: 10 μM PNA, optical density vs no treatment at 16 hours
Experimental: (§3) Bacterial Cell culture: The clinical isolates were obtained from the lab of Nancy Madinger at the University of Colorado Anschutz campus. Clinical isolates were grown in Cation Adjusted Mueller Hinton broth (CAMHB) (Becton, Dickinson and Company 212322) at 37° C. with 225 rpm shaking or on solid CAMHB with 1.5% agar at 37° C. Clinical isolates were maintained as freezer stocks in 90% CAMHB, 10% glycerol at −80° C. Freezer stocks were streaked out onto solid CAMHB and incubated for 16 h to produce single colonies prior to experiments. For each biological replicate, a single colony was picked from solid media and grown for 16 h in liquid CAMHB prior to experiments. Non-clinical isolates, such as E. coli MG1655 (ATCC700926) and Salmonella entorica serovar typhimurium SL1344, were cultured in liquid 2% lysogeny broth (LB) or on 2% LB with 1.5% agar for solid plates. S. typhimurium cultures were supplemented with 30 μg/mL streptomycin and SL1344 strains containing plasmids pFPV (SL1344-mCherry) or pRG1 modified with a lacIq promoter (SL1344-Holin) were supplemented with 100 μg/mL ampicillin. Freezer stocks were stored in 60% LB broth, 40% glycerol at −80° C. Freezer stocks were streaked out onto solid LB and incubated for 16 h to produce single colonies before experiments. For biological replicates, single colonies were started in liquid LB and grown for 16 hours prior to experiments. E. coli MG1655 PNA growth experiments were carried out in M9 media (1×M9 minimal media salts solution (MP Biomedicals), 2.0 mM MgSO4, and 0.1 mM CaCl2 in sterile water) with 0.4% glucose.
(§4) PNA growth assay: Biological replicates were diluted 1:10,000 into treatment condition in 384-well plates and measured for 24 h in a Tecan GENios at 562 nm with a bandwidth of 35 nm. Media absorbance blanks were subtracted from data prior to analysis. Normalized optical density (OD) data is shown normalized to the time point where the “no treatment” growth curves reached saturation phase which varied across biological replicates.

CRE E. coli [3] = experiment: as above; assay type: cell-based, Escherichia coli; details: for growth inhibition: 10 μM PNA, optical density vs no treatment at 16 hours
Experimental: as §3, §4

ESBL KPN [4] = experiment: as above; assay type: cell-based, Klebsiella pneumoniae; details: for monotherapy effect (in words): 10 μM
Experimental: as §3, §4

MDR STm = experiment: as above; assay type: cell-based, Salmonella enterica serovar typhimurium; details: MDR STm; 10 μM PNA; optical density vs no treatment at 16 hours
Experimental: as §3, §4

ESBL KPN [5] = experiment: Potentiation of antibiotics with PNAs (Bliss Independence); assay type: cell-based, Klebsiella pneumoniae; details: 10 μM PNA + 2 μg/mL tetracycline; for S-value (Bliss Independence model): S>0 indicates synergy
Experimental: (§5) Combinatorial effects were evaluated using the Bliss Independence model where the S parameter defines a deviation from no interaction as is defined as: […]
(§6) Where ODAB is the OD at saturation time in only antibiotic, OD0 is the OD at saturation in no treatment, ODPNA is the OD at saturation in only antisense-PNA at 10 μM, and ODAB, PNA is the OD at saturation in a combination of antibiotic and antisense-PNA. Saturation time was determined as the time when the no treatment control reached its saturation growth phase. S>0 is a deviation towards synergy and S<0 is a deviation towards antagonism.

CRE E. coli [6] = assay type: cell-based, Escherichia coli; details: for S-value (Bliss Independence model): S>0 indicates synergy; for growth with combination therapy (in words): p<0.05
Experimental: as §5, §6

E. coli MG1655 = experiment: Growth curves and CFU of lab strain treated with PNA; assay type: cell-based, Escherichia coli; details: 10 μM
Experimental: FIG. 7. Dose response of various PNA. Optical density of a 1:10,000 dilution of MG6155 from overnight liquid culture, treated with various concentrations of antisense inhibitors was measured for 3 biological replicates with error bars as standard deviations. Normalized growth was measured as the optical density at 22 hours normalized to no treatment. An asterisk (*) indicates a significant difference (p<0.05) as compared to no treatment for each inhibitor.
FIG. 8. Antisense Inhibitors targeting novel pathways can inhibit growth of E. coli. z. (A) Growth curves of E. coli MG1655 from a 1:10,000 dilution from an overnight culture, normalized to time t=0 with 10 μM of respective antisense inhibitor. […] (B) Colony forming units per milliliter of MG1655 E. coli for respective treatment as a function of time. The CFU/mL at t=0 represents the starting culture after a 1:100,000 dilution from overnight culture. […] Significance is measured as p<0.05.
as §3
PNA growth assay: Biological replicates were diluted 1:10,000 into treatment condition in 384-well plates and measured for 24 h in a Tecan GENios at 562 nm with a bandwidth of 35 nm. Media absorbance blanks were subtracted from data prior to analysis. […]

[7] = 10 μM PNA + chloramphenicol 8 μg/mL

CC1(C)S[C@@H]2[C@H](NC(=O)[C@H](N)c3ccccc3)C(=O)N2[C@H]1C(=O)O [ampicillin]
antibiotic resistance phenotype ([1]; ampicillin): resistant

CO/N=C(\C(=O)N[C@@H]1C(=O)N2C(C(=O)O)=C(CSc3nc(=O)c(=O)[nH]n3C)CS[C@H]12)c1csc(N)n1 [ceftriaxone]
antibiotic resistance phenotype ([1]; ceftriaxone): resistant

C[C@@H](O)[C@H]1C(=O)N2C(C(=O)O)=C(S[C@@H]3CN[C@H](C(=O)N(C)C)C3)[C@H](C)[C@H]12 [meropenem]
antibiotic resistance phenotype (NDM-1 KPN): resistant

N′-KFFKFFKFFK-AEEA-GTCGATAGCAT-C′ [α-recA]
effect on Salmonella in broth cultures (in words) (SL1344): lethal | drop of normalized ratio of SL1344-mCherry to SL1344-Holin ([2]; SL1344-Holin pretreated 45 minutes with 10 μM PNA, HeLa cells, 18 hours, compared to no treatment): 99.6±0.72% | fate of target strain SL1344-mCherry (in words) ([2]; two out of three biological replicates, across a range of MOI): completely eliminated | normalized mCherry/Holin (in words) ([2]; with 1 mM IPTG during treatment, p=0.006): Significant decrease | normalized mCherry/Holin (in words) ([2]; without IPTG (leaky expression), p=0.026): Significant decrease

α-ffh: 12-mer antisense PNA GACAATGTTTGA (SEQ ID NO. 16) targeting ffh, conjugated to (KFF)3K cell penetrating peptide via AEEA-linker (all peptide nucleic acid (PNA); (KFF)3K cell-penetrating peptide attached via AEEA linker)
growth inhibition (MDR E. coli): 99±0.9% | growth inhibition (CRE E. coli [3]): 98±1.5% | monotherapy effect (in words) (ESBL KPN [4]): no or minimal growth inhibition | growth inhibition (MDR STm): 99±0.8% | growth with combination therapy (in words) (ESBL KPN [5]): significant growth inhibition compared to each monotherapy | S-value (Bliss Independence model) (ESBL KPN [5]): positive

α-gyrB: 12-mer antisense PNA GTTGATGTCGAA (SEQ ID NO. 18) targeting gyrB, conjugated to (KFF)3K cell penetrating peptide via AEEA-linker (all peptide nucleic acid (PNA); (KFF)3K cell-penetrating peptide attached via AEEA linker)
monotherapy effect (in words) (MDR E. coli): effective in killing | growth inhibition (MDR E. coli): 36±14.2% | monotherapy effect (in words) (CRE E. coli [3]; 10 μM): partial therapeutic effect; also recorded: effective in killing | growth inhibition (CRE E. coli [3]): 71±12% | S-value (Bliss Independence model) (CRE E. coli [6]; [7]): 0.27 | growth with combination therapy (in words) (CRE E. coli [6]; [7]): significant growth inhibition with combination therapy compared to each monotherapy | S-value (Bliss Independence model) (CRE E. coli [6]; 10 μM PNA + gentamicin 4 μg/mL): 0.19 | growth with combination therapy (in words) (CRE E. coli [6]; 10 μM PNA + gentamicin 4 μg/mL): significant growth inhibition with combination therapy compared to each monotherapy | monotherapy effect (in words) (ESBL KPN [4]): no or minimal growth inhibition | growth inhibition (ESBL KPN [4]; 10 μM PNA, optical density vs no treatment at 16 hours): 5±1.4% | growth inhibition (MDR STm): 74±15.4% | growth with combination therapy (in words) (ESBL KPN [5]): significant growth inhibition compared to each monotherapy | S-value (Bliss Independence model) (ESBL KPN [5]): positive | effect on growth (in words) (E. coli MG1655): effective in killing
